Results as given in ChEMBL document CHEMBL1201862, “PubChem BioAssay data set” (2004).
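These data come from cells grown in 96-well plates and exposed to compound for 48 hours at five concentrations. At the GI50, growth is halved.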 The source made the active and inactive calls. Rule as the data show it: active = GI50 up to about 1.1 µM and inactive = higher.

Tests used:
Test in all cases: inhibition of tumour cell growth, NCI panel, 48 h
SK-MEL-28 = test system: SK-MEL-28
DU-145 = test system: DU-145
NCI-H522 = test system: NCI-H522
786-0 = test system: 786-0
HOP-62 = test system: HOP-62
OVCAR-4 = test system: OVCAR-4
SN12C = test system: SN12C
SNB-19 = test system: SNB-19
OVCAR-8 = test system: OVCAR-8
MDA-MB-231 = test system: MDA-MB-231
HCC 2998 = test system: HCC 2998
SNB-75 = test system: SNB-75
A549 = test system: A549
SK-OV-3 = test system: SK-OV-3
U-251 = test system: U-251
K562 = test system: K562
MDA-N = test system: MDA-N
PC-3 = test system: PC-3
RPMI-8226 = test system: RPMI-8226
TK-10 = test system: TK-10

In the case of `COc1cc(C2C3=C(COC3=O)Oc3cc4c(cc32)OCO4)ccc1O` (stereo not drawn), the GI50 (SK-MEL-28) is reported as 0.847 µM (active), the GI50 (DU-145) is reported as 0.514 µM (active) and the GI50 (NCI-H522) is reported as 0.0792 µM (active). The GI50 (786-0) was 0.481 µM (active), the GI50 (HOP-62) was 0.394 µM (active) and the GI50 (OVCAR-4) was 0.321 µM (active). The GI50 (SN12C) was 2.69 µM (inactive), the GI50 (SNB-19) was 0.333 µM (active) and the GI50 (OVCAR-8) was 0.69 µM (active). The GI50 (MDA-MB-231) was 0.818 µM (active), the GI50 (HCC 2998) was 0.893 µM (active) and the GI50 (SNB-75) was 0.225 µM (active). The GI50 (A549) was 0.41 µM (active), the GI50 (SK-OV-3) was 0.302 µM (active) and the GI50 (U-251) was 0.467 µM (active). The GI50 (K562) was 0.148 µM (active), the GI50 (MDA-N) was 0.11 µM (active) and the GI50 (PC-3) was 0.167 µM (active). The GI50 (RPMI-8226) was 0.372 µM (active) and the GI50 (TK-10) was > 100 µM (inactive).
For `O=C1OC[C@H]2[C@@H]1[C@H]1O[C@@H]2C2=C(CCC2)C1=O`, the GI50 (SK-MEL-28) was > 100 µM (inactive), the GI50 (DU-145) was > 100 µM (inactive) and the GI50 (NCI-H522) was > 100 µM (inactive). The GI50 (786-0) was > 100 µM (inactive), the GI50 (HOP-62) was > 100 µM (inactive) and the GI50 (OVCAR-4) was > 100 µM (inactive). The GI50 (SN12C) was > 100 µM (inactive), the GI50 (SNB-19) was > 100 µM (inactive) and the GI50 (OVCAR-8) was > 100 µM (inactive). For the same molecule, the GI50 (MDA-MB-231) was > 100 µM (inactive), the GI50 (HCC 2998) was > 100 µM (inactive) and the GI50 (SNB-75) was > 100 µM (inactive). For the same molecule, the GI50 (A549) was > 100 µM (inactive), the GI50 (SK-OV-3) was > 100 µM (inactive) and the GI50 (U-251) was > 100 µM (inactive). For the same molecule, the GI50 (K562) was > 100 µM (inactive), the GI50 (MDA-N) was > 100 µM (inactive) and the GI50 (PC-3) was > 100 µM (inactive). The GI50 (RPMI-8226) was > 100 µM (inactive) and the GI50 (TK-10) was > 100 µM (inactive).
In the case of `CCOC(=O)C1(Cc2ccc3c(c2)CCC3)Cc2cc3c(cc2C1)CCC3`, the GI50 (SK-MEL-28) is reported as 39.4 µM (inactive), the GI50 (DU-145) is reported as 53 µM (inactive) and the GI50 (NCI-H522) is reported as 25.1 µM (inactive). For the same molecule, the GI50 (786-0) was 29.6 µM (inactive), the GI50 (HOP-62) was 32.9 µM (inactive) and the GI50 (OVCAR-4) was 28 µM (inactive). The GI50 (SN12C) was 27.8 µM (inactive), the GI50 (SNB-19) was 36.7 µM (inactive) and the GI50 (OVCAR-8) was 42.5 µM (inactive). For the same molecule, the GI50 (MDA-MB-231) was 28.1 µM (inactive), the GI50 (HCC 2998) was 22.6 µM (inactive) and the GI50 (SNB-75) was 75.5 µM (inactive). The GI50 (A549) was 35.9 µM (inactive), the GI50 (SK-OV-3) was 24.7 µM (inactive) and the GI50 (U-251) was 32.3 µM (inactive). For the same molecule, the GI50 (K562) was 15.2 µM (inactive), the GI50 (MDA-N) was 37 µM (inactive) and the GI50 (PC-3) was 21.9 µM (inactive). For the same molecule, the GI50 (RPMI-8226) was 14.6 µM (inactive) and the GI50 (TK-10) was > 100 µM (inactive).
For `CCCCCCCCCCCCOCCCCCCCCC/C=C/c1ccc2c(c1)OCCOCCOCCOCCO2`, the GI50 (SK-MEL-28) was 30.7 µM (inactive), the GI50 (DU-145) was 33 µM (inactive) and the GI50 (NCI-H522) was 13.2 µM (inactive). The GI50 (786-0) was 13.6 µM (inactive), the GI50 (HOP-62) was 28 µM (inactive) and the GI50 (OVCAR-4) was 19.3 µM (inactive). The GI50 (SN12C) was 23.6 µM (inactive), the GI50 (SNB-19) was 33.3 µM (inactive) and the GI50 (OVCAR-8) was 12.7 µM (inactive). The GI50 (MDA-MB-231) was 17.1 µM (inactive), the GI50 (HCC 2998) was 17.9 µM (inactive) and the GI50 (SNB-75) was 16.4 µM (inactive). The GI50 (A549) was 17.6 µM (inactive), the GI50 (SK-OV-3) was 17.5 µM (inactive) and the GI50 (U-251) was 22.8 µM (inactive). For the same molecule, the GI50 (K562) was 31.3 µM (inactive), the GI50 (MDA-N) was 18.5 µM (inactive) and the GI50 (PC-3) was 17.9 µM (inactive). The GI50 (RPMI-8226) was 17.7 µM (inactive) and the GI50 (TK-10) was 19.6 µM (inactive).
For `Cc1c(C)c2c(c(N)c1C#N)C(=O)N(NC(=S)Nc1ccccc1)C2=O`, the GI50 (SK-MEL-28) was > 100 µM (inactive), the GI50 (DU-145) was > 100 µM (inactive) and the GI50 (NCI-H522) was 52.7 µM (inactive). For the same molecule, the GI50 (786-0) was 44.1 µM (inactive), the GI50 (OVCAR-4) was > 100 µM (inactive) and the GI50 (SN12C) was 69.7 µM (inactive). The GI50 (SNB-19) was 56.6 µM (inactive), the GI50 (OVCAR-8) was 45 µM (inactive) and the GI50 (MDA-MB-231) was > 100 µM (inactive). For the same molecule, the GI50 (HCC 2998) was > 100 µM (inactive), the GI50 (SNB-75) was 39 µM (inactive) and the GI50 (A549) was > 100 µM (inactive). For the same molecule, the GI50 (SK-OV-3) was > 100 µM (inactive), the GI50 (U-251) was > 100 µM (inactive) and the GI50 (K562) was > 100 µM (inactive). The GI50 (MDA-N) was > 100 µM (inactive), the GI50 (PC-3) was > 100 µM (inactive) and the GI50 (RPMI-8226) was 43.3 µM (inactive). The GI50 (TK-10) was > 100 µM (inactive).
For `CCCCCCCN(CCCCCCC)CC(O)c1cc2ccccc2c2cc(Br)ccc12` (stereo not drawn), the GI50 (SK-MEL-28) was 36.6 µM (inactive), the GI50 (DU-145) was 8.07 µM (inactive) and the GI50 (NCI-H522) was 28.7 µM (inactive). For the same molecule, the GI50 (786-0) was 31.6 µM (inactive), the GI50 (HOP-62) was 24.7 µM (inactive) and the GI50 (OVCAR-4) was > 100 µM (inactive). For the same molecule, the GI50 (SN12C) was 6.58 µM (inactive), the GI50 (SNB-19) was 38.7 µM (inactive) and the GI50 (OVCAR-8) was 30.3 µM (inactive). For the same molecule, the GI50 (MDA-MB-231) was 5.98 µM (inactive), the GI50 (HCC 2998) was 15.2 µM (inactive) and the GI50 (SNB-75) was 34.9 µM (inactive). For the same molecule, the GI50 (SK-OV-3) was > 100 µM (inactive), the GI50 (U-251) was 18.3 µM (inactive) and the GI50 (K562) was 30.7 µM (inactive). For the same molecule, the GI50 (MDA-N) was 28.5 µM (inactive), the GI50 (PC-3) was 24.2 µM (inactive) and the GI50 (RPMI-8226) was 24.9 µM (inactive). For the same molecule, the GI50 (TK-10) was 47.6 µM (inactive).
